Among the data in patent US8236793B2, “Diazabicyclic aryl derivatives as cholinergic receptor modulators” (Neurosearch A/S, priority 2004, dated 2012) are melting point and IC50 values, retold here.

In data set [1] the target is T1, α7-subtype of nicotinic receptors (Rattus norvegicus, UniProt Q05941).
T1 construct: Cerebral cortices from male Wistar rats (150-250 g) are homogenised; from tissue; host or cells: rat cerebral cortex membrane homogenate (male Wistar rats)
Description: In vitro inhibition of 3H-α-bungarotoxine binding in rat brain. The settings on record: rat cerebral cortex homogenate; 3H-α-bungarotoxine 2 nM; 2 hours at 37° C.

Structures are written as SMILES. pIC50: −log10 of the molar value. Counter-ions that a name gives are not always drawn.

T1 sequence (Q05941 23-502): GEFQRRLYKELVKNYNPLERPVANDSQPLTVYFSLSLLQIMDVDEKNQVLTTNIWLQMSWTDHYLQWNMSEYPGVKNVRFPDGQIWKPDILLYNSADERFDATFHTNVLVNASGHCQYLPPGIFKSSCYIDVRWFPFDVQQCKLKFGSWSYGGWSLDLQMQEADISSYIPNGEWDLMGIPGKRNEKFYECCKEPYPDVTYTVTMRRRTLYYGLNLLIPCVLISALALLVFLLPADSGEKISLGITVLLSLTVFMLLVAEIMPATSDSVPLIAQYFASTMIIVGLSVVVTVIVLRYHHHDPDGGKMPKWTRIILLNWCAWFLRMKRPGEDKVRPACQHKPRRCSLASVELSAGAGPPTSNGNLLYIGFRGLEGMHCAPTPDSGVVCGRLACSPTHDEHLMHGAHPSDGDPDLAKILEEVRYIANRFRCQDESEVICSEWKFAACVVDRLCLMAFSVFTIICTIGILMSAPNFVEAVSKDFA

One may read the melting point as the temperature, or range, at which the solid turns liquid. The compound `Nc1ccc(C#Cc2ccc(N3CCN4CCC3CC4)nn2)cc1` gave a melting point of 181.7 to 183.4 °C.

`CC(=O)Nc1cccc(C(=O)Nc2ccc(N3CCN4CCC3CC4)cc2)c1` showed a melting point of 184 to 187 °C.

Turning to `CC(=O)Nc1ccc(C(=O)Nc2ccc(N3CCN4CCC3CC4)cc2)cc1`, the melting point is more than 240 °C.

In the case of `CC(=O)Nc1ccc(C(=O)Nc2ccc(N3CCN4CCC3CC4)nc2)cc1`, the melting point is 255 °C (dec.).

For `CC(=O)Nc1cccc(C(=O)Nc2ccc(N3CCN4CCC3CC4)nc2)c1`, the melting point came out at 60 °C.

In turn, `Fc1cccc(C#Cc2ccc(N3CCN4CCC3CC4)nn2)c1` (as salt: fumaric acid salt) registered a melting point of 173.5 to 175 °C.

Turning to `COc1ccc(C#Cc2ccc(N3CCN4CCC3CC4)nn2)cc1` (as salt: fumaric acid salt) [Compound B4, 4-[6-(4-Methoxy-phenylethynyl)-pyridazin-3-yl]-1,4-diaza-bicyclo[3.2.2]nonane], the melting point lay within 208 to 209 °C.

In the case of `C(#Cc1ccc(N2CCN3CCC2CC3)nn1)c1cccnc1` (as salt: fumaric acid salt) [Compound B5, 4-[6-(3-Pyridinlethynyl)-pyridazin-3-yl]-1,4-diaza-bicyclo[3.2.2]nonane], the melting point lay in the range of 177.8 to 181.2 °C.

What is called pIC50 is −log10 of the IC50, conventionally taken in molar units. Read a low pIC50 as a large IC50. In turn, `C(#Cc1ccc(N2CCN3CCC2CC3)nn1)c1ccccc1` [Compound B1, 4-(6-Phenylethynyl-pyridazin-3-yl)-1,4-diaza-bicyclo[3.2.2]nonane] gave a pIC50 in data set [1] of 7.22.

Turning to `COc1ccc(C#Cc2ccc(N3CCN4CCC3CC4)nn2)cc1` [Compound B4, 4-[6-(4-Methoxy-phenylethynyl)-pyridazin-3-yl]-1,4-diaza-bicyclo[3.2.2]nonane], the pIC50 in data set [1] is 6.74.

In data set [1], `C(#Cc1ccc(N2CCN3CCC2CC3)nn1)c1cccnc1` [Compound B5, 4-[6-(3-Pyridinlethynyl)-pyridazin-3-yl]-1,4-diaza-bicyclo[3.2.2]nonane] gave a pIC50 of 6.82. The pIC50 values of the last two compounds are within 0.2 log units of each other.

Regarding `c1ccc(Sc2ccc(N3CCN4CCC3CC4)nn2)cc1` [Compound C1, 4-(6-Phenylsulfanyl-pyridazin-3-yl)-1,4-diaza-bicyclo[3.2.2]nonane], in data set [1], the pIC50 was 6.22.
